Active and inactive are the calls of the source. How the calls were made is not given here.
Tested on: CCRIS mutagenicity, Ames/micronucleus/aberration tests
Experiment: CCRIS mutagenicity studies
[1] = Test System: AMES SALMONELLA TYPHIMURIUM, Strain/Indicator: TA98, Metabolic Activation: NONE, Method: STANDARD PLATE
[2] = Test System: AMES SALMONELLA TYPHIMURIUM, Strain/Indicator: TA100, Metabolic Activation: NONE, Method: STANDARD PLATE
[3] = Test System: AMES SALMONELLA TYPHIMURIUM, Strain/Indicator: TA98, Metabolic Activation: HAMSTER, LIVER, S-9, AROCLOR 1254, Method: STANDARD PLATE
[4] = Test System: AMES SALMONELLA TYPHIMURIUM, Strain/Indicator: TA98, Metabolic Activation: RAT, LIVER, S-9, AROCLOR 1254, Method: STANDARD PLATE
[5] = Test System: AMES SALMONELLA TYPHIMURIUM, Strain/Indicator: TA100, Metabolic Activation: HAMSTER, LIVER, S-9, AROCLOR 1254, Method: STANDARD PLATE
[6] = Test System: AMES SALMONELLA TYPHIMURIUM, Strain/Indicator: TA100, Metabolic Activation: RAT, LIVER, S-9, AROCLOR 1254, Method: STANDARD PLATE
[7] = Test System: AMES SALMONELLA TYPHIMURIUM, Strain/Indicator: TA1535, Metabolic Activation: HAMSTER, LIVER, S-9, AROCLOR 1254, Method: STANDARD PLATE
[8] = Test System: AMES SALMONELLA TYPHIMURIUM, Strain/Indicator: TA1535, Metabolic Activation: NONE, Method: STANDARD PLATE
[9] = Test System: AMES SALMONELLA TYPHIMURIUM, Strain/Indicator: TA1535, Metabolic Activation: RAT, LIVER, S-9, AROCLOR 1254, Method: STANDARD PLATE
[10] = Test System: AMES SALMONELLA TYPHIMURIUM, Strain/Indicator: TA1537, Metabolic Activation: HAMSTER, LIVER, S-9, AROCLOR 1254, Method: STANDARD PLATE
[11] = Test System: AMES SALMONELLA TYPHIMURIUM, Strain/Indicator: TA1537, Metabolic Activation: NONE, Method: STANDARD PLATE
[12] = Test System: AMES SALMONELLA TYPHIMURIUM, Strain/Indicator: TA1537, Metabolic Activation: RAT, LIVER, S-9, AROCLOR 1254, Method: STANDARD PLATE
[13] = Test System: MOUSE LYMPHOMA, Strain/Indicator: L5178Y (TK+/TK-), Metabolic Activation: NONE, Method: SUSPENSION/PLATE
[14] = Test System: MOUSE LYMPHOMA, Strain/Indicator: L5178Y (TK+/TK-), Metabolic Activation: RAT, LIVER, S-9, AROCLOR 1254, Method: SUSPENSION/PLATE
[15] = Test System: AMES SALMONELLA TYPHIMURIUM, Strain/Indicator: TA100, Metabolic Activation: NONE, Method: PREINCUBATION

## Cc1ccc(S(=O)(=O)NC(=O)Nc2ncc([N+](=O)[O-])s2)cc1
[1]
  mutagenic call: inactive; negative
[2]
  mutagenic call: inactive; negative

## CCCCON=O
[3]
  mutagenic call: inactive; negative
[1]
  mutagenic call: inactive; negative
[4]
  mutagenic call: inactive; negative
Test System: AMES SALMONELLA TYPHIMURIUM, Strain/Indicator: TA98, Metabolic Activation: S-9, Method: STANDARD PLATE
  mutagenic call: active; positive
[5]
  mutagenic call: inactive; negative
[2]
  mutagenic call: active; positive
[6]
  mutagenic call: inactive; negative
Test System: AMES SALMONELLA TYPHIMURIUM, Strain/Indicator: TA100, Metabolic Activation: S-9, Method: STANDARD PLATE
  mutagenic call: active; positive
[7]
  mutagenic call: active; positive
[8]
  mutagenic call: active; positive
[9]
  mutagenic call: active; positive
[10]
  mutagenic call: inactive; negative
[11]
  mutagenic call: inactive; negative
[12]
  mutagenic call: inactive; negative
[13]
  mutagenic call: active; positive. reevaluation of results: positive
[14]
  mutagenic call: active; positive. reevaluation of results: positive

## Nc1cccc2cc3c(nc12)CCCC3
Test System: AMES SALMONELLA TYPHIMURIUM, Strain/Indicator: TA97A, Metabolic Activation: NONE, Method: STANDARD PLATE
  mutagenic call: active; positive
Test System: AMES SALMONELLA TYPHIMURIUM, Strain/Indicator: TA97A, Metabolic Activation: RAT, LIVER, S-9, AROCLOR 1254, Method: STANDARD PLATE
  mutagenic call: active; positive

## COc1cc2c3c(c1OC)-c1cc4c(cc1C[C@@H]3N(C)CC2)OCO4
Test System: AMES SALMONELLA TYPHIMURIUM, Strain/Indicator: TA98, Metabolic Activation: RAT, LIVER, S-9, PHENOBARBITAL AND BETA-NAPHTHOFLAVONE, Method: PREINCUBATION
  mutagenic call: active; positive
Test System: AMES SALMONELLA TYPHIMURIUM, Strain/Indicator: TA100, Metabolic Activation: RAT, LIVER, S-9, PHENOBARBITAL AND BETA-NAPHTHOFLAVONE, Method: PREINCUBATION
  mutagenic call: active; positive

## C=C(Br)C=O
Test System: AMES SALMONELLA TYPHIMURIUM, Strain/Indicator: TA100, Metabolic Activation: NONE, Method: LIQUID INCUBATION
  mutagenic call: active; positive
[15]
  mutagenic call: active; positive
Test System: AMES SALMONELLA TYPHIMURIUM, Strain/Indicator: TA100, Metabolic Activation: NONE, Method: PREINCUBATION, LIQUID INCUBATION
  mutagenic call: active; positive
[2]
  mutagenic call: active; positive
Test System: AMES SALMONELLA TYPHIMURIUM, Strain/Indicator: TA100, Metabolic Activation: RAT, LIVER, MICROSOMES, Method: PREINCUBATION
  mutagenic call: active; positive
Test System: AMES SALMONELLA TYPHIMURIUM, Strain/Indicator: TA104, Metabolic Activation: NONE, Method: PREINCUBATION
  mutagenic call: active; positive
Test System: AMES SALMONELLA TYPHIMURIUM, Strain/Indicator: TA1535, Metabolic Activation: NONE, Method: LIQUID INCUBATION
  mutagenic call: active; positive
Test System: AMES SALMONELLA TYPHIMURIUM, Strain/Indicator: TA1535, Metabolic Activation: NONE, Method: PREINCUBATION, LIQUID INCUBATION
  mutagenic call: active; positive
Test System: UDS RAT HEPATOCYTES, Strain/Indicator: THY INCORP, Metabolic Activation: NONE
  mutagenic call: inactive; negative

## CC1=Nc2ccccc2C1(C)C
[3]
  mutagenic call: inactive; negative
[1]
  mutagenic call: inactive; negative
[4]
  mutagenic call: inactive; negative
[5]
  mutagenic call: inactive; negative
[2]
  mutagenic call: inactive; negative
[6]
  mutagenic call: inactive; negative
[7]
  mutagenic call: inactive; negative
[8]
  mutagenic call: inactive; negative
[9]
  mutagenic call: inactive; negative
[10]
  mutagenic call: inactive; negative
[11]
  mutagenic call: inactive; negative
[12]
  mutagenic call: inactive; negative
Test System: AMES SALMONELLA TYPHIMURIUM, Strain/Indicator: TA1538, Metabolic Activation: HAMSTER, LIVER, S-9, AROCLOR 1254, Method: STANDARD PLATE
  mutagenic call: inactive; negative
Test System: AMES SALMONELLA TYPHIMURIUM, Strain/Indicator: TA1538, Metabolic Activation: NONE, Method: STANDARD PLATE
  mutagenic call: inactive; negative
Test System: AMES SALMONELLA TYPHIMURIUM, Strain/Indicator: TA1538, Metabolic Activation: RAT, LIVER, S-9, AROCLOR 1254, Method: STANDARD PLATE
  mutagenic call: inactive; negative
[13]
  mutagenic call: inactive; positive. reevaluation of results: negative
[14]
  mutagenic call: active; positive. reevaluation of results: inconclusive

## OCc1ccnc2ccccc12
Test System: AMES SALMONELLA TYPHIMURIUM, Strain/Indicator: TA100, Metabolic Activation: RAT, LIVER, S-9, Method: PREINCUBATION
  mutagenic call: inactive; negative

## CCCCCNCCCCC
Test System: AMES SALMONELLA TYPHIMURIUM, Strain/Indicator: TA98, Metabolic Activation: HAMSTER, LIVER, S-9, AROCLOR 1254 (10%), Method: PREINCUBATION
  mutagenic call: inactive; negative
Test System: AMES SALMONELLA TYPHIMURIUM, Strain/Indicator: TA98, Metabolic Activation: NONE, Method: PREINCUBATION
  mutagenic call: inactive; negative
Test System: AMES SALMONELLA TYPHIMURIUM, Strain/Indicator: TA98, Metabolic Activation: RAT, LIVER, S-9, AROCLOR 1254 (10%), Method: PREINCUBATION
  mutagenic call: inactive; negative
Test System: AMES SALMONELLA TYPHIMURIUM, Strain/Indicator: TA100, Metabolic Activation: HAMSTER, LIVER, S-9, AROCLOR 1254 (10%), Method: PREINCUBATION
  mutagenic call: inactive; negative
[15]
  mutagenic call: inactive; negative
Test System: AMES SALMONELLA TYPHIMURIUM, Strain/Indicator: TA100, Metabolic Activation: RAT, LIVER, S-9, AROCLOR 1254 (10%), Method: PREINCUBATION
  mutagenic call: inactive; negative
Test System: AMES SALMONELLA TYPHIMURIUM, Strain/Indicator: TA1535, Metabolic Activation: HAMSTER, LIVER, S-9, AROCLOR 1254 (10%), Method: PREINCUBATION
  mutagenic call: inactive; negative
Test System: AMES SALMONELLA TYPHIMURIUM, Strain/Indicator: TA1535, Metabolic Activation: NONE, Method: PREINCUBATION
  mutagenic call: inactive; negative
Test System: AMES SALMONELLA TYPHIMURIUM, Strain/Indicator: TA1535, Metabolic Activation: RAT, LIVER, S-9, AROCLOR 1254 (10%), Method: PREINCUBATION
  mutagenic call: inactive; negative
Test System: AMES SALMONELLA TYPHIMURIUM, Strain/Indicator: TA1537, Metabolic Activation: HAMSTER, LIVER, S-9, AROCLOR 1254 (10%), Method: PREINCUBATION
  mutagenic call: inactive; negative
Test System: AMES SALMONELLA TYPHIMURIUM, Strain/Indicator: TA1537, Metabolic Activation: NONE, Method: PREINCUBATION
  mutagenic call: inactive; negative
Test System: AMES SALMONELLA TYPHIMURIUM, Strain/Indicator: TA1537, Metabolic Activation: RAT, LIVER, S-9, AROCLOR 1254 (10%), Method: PREINCUBATION
  mutagenic call: inactive; negative

## CO[C@@H]1[C@H](O)C[C@@H](O[C@@H]2C[C@H](Oc3cc4cc5c(c(O)c4c(O)c3C)C(=O)[C@@H](O[C@H]3C[C@@H](O[C@H]4C[C@@H](O[C@H]6C[C@](C)(O)[C@@H](OC(C)=O)[C@H](C)O6)[C@H](O)[C@@H](C)O4)[C@H](O)[C@@H](C)O3)[C@H]([C@H](OC)C(=O)[C@@H](O)[C@@H](C)O)C5)O[C@H](C)[C@@H]2OC(C)=O)O[C@@H]1C
[1]
  mutagenic call: inactive; negative
[2]
  mutagenic call: inactive; negative
Test System: CHINESE HAMSTER OVARY, Strain/Indicator: CHO (HGPRT)/6-THIOGUANINE, Metabolic Activation: NONE, Method: PREINCUBATION
  mutagenic call: active; positive
Test System: E. COLI, Strain/Indicator: WP2 (HCR), Metabolic Activation: NONE, Method: STANDARD PLATE
  mutagenic call: inactive; negative

Reference: PubChem BioAssay AID1259407 (Chemical Carcinogenesis Research Information System (CCRIS), 2018)
